Patent publication US12447153B2, “HER2 mutation inhibitors” (Array BioPharma Inc., priority 2021, dated 2025)

Columns and labels:
EGFR wild type (EGFR WT) = EGFR wild type (EGFR WT) (Homo sapiens (Human), UniProt P00533); test: Cellular Phosphorylation Assay, Assay 5 (EGF-stimulated EGFR phosphorylation, NIH 3T3 cells); type: cell-based; conditions: cellular EGFR WT phosphorylation, EGF-stimulated
EGFR = EGFR (Homo sapiens (Human), UniProt P00533); test: ErbB Enzyme Assay (HTRF KinEASE-TK), Assay 3; type: biochemical; conditions: EGFR enzyme assay
ErbB2 WT = ErbB2 WT (Homo sapiens (Human), UniProt P04626); test: ErbB Enzyme Assay (HTRF KinEASE-TK), Assay 2; type: biochemical; conditions: ErbB2 WT enzyme assay
[1] = molecular target: ErbB2 with Exon 20 YVMA insertion (HER2-YVMA) (Homo sapiens (Human), UniProt P04626, INS775YVMA); test: Cellular Phosphorylation Assay, Assay 4 (constitutive ErbB2 phosphorylation, NIH 3T3 cells); type: cell-based; conditions: cellular ErbB2 YVMA phosphorylation
Sequence of ErbB2 with Exon 20 YVMA insertion (HER2-YVMA) (P04626 other isoform, or with tags, fused parts or gaps ins YVMA behind 775): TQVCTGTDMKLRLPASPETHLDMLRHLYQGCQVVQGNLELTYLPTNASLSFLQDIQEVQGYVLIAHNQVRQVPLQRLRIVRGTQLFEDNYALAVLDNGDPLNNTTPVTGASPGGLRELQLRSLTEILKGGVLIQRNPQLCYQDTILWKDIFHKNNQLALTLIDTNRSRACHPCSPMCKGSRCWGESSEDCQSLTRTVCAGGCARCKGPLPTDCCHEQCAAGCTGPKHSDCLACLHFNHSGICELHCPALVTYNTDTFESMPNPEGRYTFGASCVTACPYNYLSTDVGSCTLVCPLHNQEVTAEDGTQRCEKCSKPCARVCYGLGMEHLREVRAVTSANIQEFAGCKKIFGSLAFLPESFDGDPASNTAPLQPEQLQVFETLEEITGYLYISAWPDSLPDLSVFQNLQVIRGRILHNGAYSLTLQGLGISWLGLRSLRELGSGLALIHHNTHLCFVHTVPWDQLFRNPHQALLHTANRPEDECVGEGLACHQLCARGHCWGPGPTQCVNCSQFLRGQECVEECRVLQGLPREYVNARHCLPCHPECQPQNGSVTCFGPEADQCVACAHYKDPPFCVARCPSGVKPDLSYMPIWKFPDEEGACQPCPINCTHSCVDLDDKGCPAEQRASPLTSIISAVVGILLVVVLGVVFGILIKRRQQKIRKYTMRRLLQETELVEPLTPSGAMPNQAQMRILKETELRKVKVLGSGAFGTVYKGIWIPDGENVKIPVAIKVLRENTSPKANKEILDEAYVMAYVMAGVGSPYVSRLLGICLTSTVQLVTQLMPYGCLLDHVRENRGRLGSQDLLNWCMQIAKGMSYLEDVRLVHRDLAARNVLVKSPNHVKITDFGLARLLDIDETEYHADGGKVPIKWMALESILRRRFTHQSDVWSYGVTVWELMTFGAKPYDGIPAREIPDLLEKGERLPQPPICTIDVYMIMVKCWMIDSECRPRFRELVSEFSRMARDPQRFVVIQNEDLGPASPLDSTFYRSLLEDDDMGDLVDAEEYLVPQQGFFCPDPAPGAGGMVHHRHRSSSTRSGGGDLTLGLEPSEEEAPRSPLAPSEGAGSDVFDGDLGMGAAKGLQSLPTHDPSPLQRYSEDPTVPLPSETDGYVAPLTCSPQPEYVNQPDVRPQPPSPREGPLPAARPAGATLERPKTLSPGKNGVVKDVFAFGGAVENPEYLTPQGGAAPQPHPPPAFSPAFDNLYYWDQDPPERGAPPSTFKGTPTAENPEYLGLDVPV

Sequence of EGFR (P00533 25-1210): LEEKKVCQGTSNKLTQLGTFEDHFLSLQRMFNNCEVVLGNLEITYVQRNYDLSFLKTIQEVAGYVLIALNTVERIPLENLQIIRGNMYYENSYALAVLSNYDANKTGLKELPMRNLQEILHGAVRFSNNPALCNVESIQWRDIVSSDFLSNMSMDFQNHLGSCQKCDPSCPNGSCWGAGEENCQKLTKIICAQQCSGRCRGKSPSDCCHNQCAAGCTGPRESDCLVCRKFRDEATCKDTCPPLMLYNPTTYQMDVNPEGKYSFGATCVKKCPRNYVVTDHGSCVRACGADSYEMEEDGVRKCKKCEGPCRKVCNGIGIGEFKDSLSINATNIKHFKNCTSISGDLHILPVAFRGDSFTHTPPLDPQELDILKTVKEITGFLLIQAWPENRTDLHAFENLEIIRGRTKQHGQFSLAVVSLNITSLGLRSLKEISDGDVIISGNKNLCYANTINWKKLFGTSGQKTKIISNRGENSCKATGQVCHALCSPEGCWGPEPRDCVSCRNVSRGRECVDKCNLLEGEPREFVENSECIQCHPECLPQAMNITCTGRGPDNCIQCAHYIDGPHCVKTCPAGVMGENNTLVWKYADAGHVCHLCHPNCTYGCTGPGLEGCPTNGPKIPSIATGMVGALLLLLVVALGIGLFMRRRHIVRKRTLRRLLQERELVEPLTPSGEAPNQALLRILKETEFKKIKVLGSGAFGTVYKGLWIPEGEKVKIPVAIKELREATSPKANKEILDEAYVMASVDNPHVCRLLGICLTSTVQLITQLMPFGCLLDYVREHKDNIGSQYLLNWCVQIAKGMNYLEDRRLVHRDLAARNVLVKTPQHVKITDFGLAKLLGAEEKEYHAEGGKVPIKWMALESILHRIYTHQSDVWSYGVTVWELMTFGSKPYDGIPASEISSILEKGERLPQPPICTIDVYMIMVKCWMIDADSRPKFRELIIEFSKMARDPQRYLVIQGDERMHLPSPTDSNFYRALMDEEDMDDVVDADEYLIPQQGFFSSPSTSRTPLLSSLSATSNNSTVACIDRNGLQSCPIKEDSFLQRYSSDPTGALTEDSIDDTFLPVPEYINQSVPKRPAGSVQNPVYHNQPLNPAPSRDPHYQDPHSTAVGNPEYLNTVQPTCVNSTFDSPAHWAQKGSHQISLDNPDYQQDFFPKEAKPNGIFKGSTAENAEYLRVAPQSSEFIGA
Sequence of EGFR wild type (EGFR WT) (P00533 25-1210): as above
Sequence of ErbB2 WT (P04626 23-1255): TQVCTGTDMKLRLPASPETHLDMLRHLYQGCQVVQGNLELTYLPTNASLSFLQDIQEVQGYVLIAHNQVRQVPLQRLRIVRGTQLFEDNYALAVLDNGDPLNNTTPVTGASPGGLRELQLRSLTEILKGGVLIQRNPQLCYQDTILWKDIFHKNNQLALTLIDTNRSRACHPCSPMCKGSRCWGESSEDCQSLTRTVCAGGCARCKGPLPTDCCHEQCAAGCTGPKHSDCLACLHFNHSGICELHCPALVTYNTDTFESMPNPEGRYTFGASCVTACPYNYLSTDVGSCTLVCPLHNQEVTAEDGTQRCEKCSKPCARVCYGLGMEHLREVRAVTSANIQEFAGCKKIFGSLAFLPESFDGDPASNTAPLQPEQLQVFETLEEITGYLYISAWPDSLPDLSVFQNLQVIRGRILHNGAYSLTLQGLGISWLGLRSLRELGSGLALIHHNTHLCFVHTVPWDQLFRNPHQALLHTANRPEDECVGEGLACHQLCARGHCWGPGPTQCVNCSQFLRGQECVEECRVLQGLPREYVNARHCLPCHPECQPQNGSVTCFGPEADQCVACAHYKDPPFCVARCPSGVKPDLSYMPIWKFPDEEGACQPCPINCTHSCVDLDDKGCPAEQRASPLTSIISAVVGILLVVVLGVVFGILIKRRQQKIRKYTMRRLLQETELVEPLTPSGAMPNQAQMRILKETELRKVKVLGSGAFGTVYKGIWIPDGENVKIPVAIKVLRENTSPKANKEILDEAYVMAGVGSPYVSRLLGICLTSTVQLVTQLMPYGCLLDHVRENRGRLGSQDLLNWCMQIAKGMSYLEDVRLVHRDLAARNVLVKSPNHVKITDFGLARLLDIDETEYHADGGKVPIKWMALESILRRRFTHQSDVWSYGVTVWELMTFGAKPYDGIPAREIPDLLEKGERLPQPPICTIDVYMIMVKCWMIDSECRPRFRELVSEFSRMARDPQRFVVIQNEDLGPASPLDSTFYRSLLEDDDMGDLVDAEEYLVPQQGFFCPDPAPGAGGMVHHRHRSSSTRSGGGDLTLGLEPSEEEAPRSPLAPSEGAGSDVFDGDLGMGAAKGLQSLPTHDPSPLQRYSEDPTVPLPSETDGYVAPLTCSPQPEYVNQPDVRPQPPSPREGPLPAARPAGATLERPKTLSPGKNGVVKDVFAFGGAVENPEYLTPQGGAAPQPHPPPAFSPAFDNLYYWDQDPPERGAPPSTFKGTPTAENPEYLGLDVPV

IC50 (EGFR wild type (EGFR WT)) | IC50 (EGFR) | IC50 (ErbB2 WT) | IC50 [1] | Compound
≥ 5000 nM | ≥ 10000 nM | 795 nM | 172 nM | C=CC(=O)N1[C@H](C)CN(c2ccc3ncnc(Nc4ccc(Oc5ccc6c(c5)ncn6C)c(C)c4F)c3n2)C[C@H]1C [Example 255]
≥ 5000 nM | ≥ 10000 nM | 57.2 nM | 66.9 nM | C=CC(=O)N1[C@@H](C)CN(c2ccc3ncnc(Nc4ccc(Oc5ccc6c(c5)ncn6C)c(C)c4F)c3n2)C[C@@H]1C [Example 256]
≥ 5000 nM | ≥ 10000 nM | 54.2 nM | 115 nM | C=CC(=O)N1[C@@H](C)CN(c2ccc3ncnc(Nc4cc(C)c(Oc5ccc6c(c5)ncn6C)cc4F)c3n2)C[C@@H]1C [Example 257]
≥ 5000 nM | ≥ 10000 nM | 10000 nM | 99.9 nM | C=CC(=O)N1[C@@H](C)CN(c2ccc3ncnc(Nc4cc(Cl)c(Oc5ccc6c(c5)ncn6C)cc4F)c3n2)C[C@@H]1C [Example 258]
3430 nM | ≥ 10000 nM | 20.4 nM | 78.5 nM | C=CC(=O)N1CCCN(c2ccc3ncnc(Nc4ccc(Oc5ccn6ncnc6c5)c(C)c4F)c3n2)CC1(C)C [Example 259]
≥ 5000 nM | 4510 nM | 41.5 nM | 114 nM | C=CC(=O)N1CCCN(c2ccc3ncnc(Nc4cc(C)c(Oc5ccn6ncnc6c5)cc4F)c3n2)CC1(C)C [Example 260]
≥ 5000 nM | ≥ 10000 nM | 148 nM | 204 nM | C=CC(=O)N1[C@H](C)CN(c2ccc3ncnc(Nc4cc(C)c(Oc5ccn6ncnc6c5)cc4F)c3n2)C[C@@H]1C [Example 263]
≥ 5000 nM | ≥ 10000 nM | 178 nM | 91.2 nM | C=CC(=O)N1CCN(c2ccc3ncnc(Nc4ccc(Oc5ccn6ncnc6c5)c(C)c4F)c3n2)C[C@@H]1C(C)C [Example 266]
129 nM | 102 nM | 10.4 nM | 10.9 nM | C=CC(=O)N1CCN(c2ccc3ncnc(Nc4ccc(Oc5cc(F)c6c(c5)ncn6C)c(C)c4)c3n2)CC12CC2 [Example 281]
1380 nM | 4550 nM | 28.2 nM | 33.6 nM | C=CC(=O)N1CCN(c2ccc3ncnc(Nc4ccc(Oc5ccn6ncnc6c5)c(C)c4F)c3n2)C[C@H]1C1CC1 [Example 283]
≥ 5000 nM | ≥ 10000 nM | 24.9 nM | 67.9 nM | C=CC(=O)N1CCN(c2ccc3ncnc(Nc4cc(C)c(Oc5ccn6ncnc6c5)cc4F)c3n2)C[C@@H]1C1CC1 [Example 284]
≥ 5000 nM | ≥ 10000 nM | 65.8 nM | 34.1 nM | C=CC(=O)N1CCN(c2ccc3ncnc(Nc4ccc(Oc5ccn6ncnc6c5)c(C)c4F)c3n2)C[C@@H]1C1CC1 [Example 285]
276 nM | 462 nM | 14.9 nM | 9.5 nM | C=CC(=O)N1CCN(c2ccc3ncnc(Nc4ccc(Oc5ccn6ncnc6c5)c(Cl)c4F)c3n2)C[C@H]1C(C)C [Example 291]
≥ 5000 nM | 2330 nM | 50.5 nM | 21.2 nM | C=CC(=O)N1CCN(c2ccc3ncnc(Nc4ccc(Oc5ccn6ncnc6c5)c(Cl)c4F)c3n2)C[C@@H]1C(C)C [Example 293]
≥ 5000 nM | 1030 nM | 153 nM | 79.3 nM | C=CC(=O)N1CCN(c2ccc3ncnc(Nc4ccc(Oc5ccn6ncnc6c5)c(C)c4F)c3n2)C[C@@H]1C(C)(C)C [Example 295]
902 nM | 255 nM | 36.5 nM | 29.9 nM | C=CC(=O)N1CC(Cc2ccc3ncnc(Nc4ccc(Oc5ccn6ncnc6c5)c(C)c4F)c3n2)C1 [Example 298]
≥ 5000 nM | ≥ 10000 nM | 104 nM | 36.6 nM | C=CC(=O)N1CC2(CCN(c3ccc4ncnc(Nc5ccc(Oc6ccn7ncnc7c6)c(C)c5F)c4n3)C2)C1 [Example 307]
110 nM | 432 nM | 15.5 nM | 8.4 nM | C=CC(=O)N1CCN(c2ccc3ncnc(Nc4ccc(Oc5ccn6ncnc6c5)c(C)c4F)c3n2)CC12CCC2 [Example 308]
≥ 5000 nM | ≥ 10000 nM | 10000 nM | 16.1 nM | C=CC(=O)N1CCN(c2ccc3ncnc(Nc4cc(Cl)c(Oc5ccn6ncnc6c5)cc4F)c3n2)C[C@H]1C(C)(C)C [Example 309]
≥ 5000 nM | ≥ 10000 nM | 10000 nM | 33.4 nM | C=CC(=O)N1CCN(c2ccc3ncnc(Nc4cc(C)c(Oc5ccn6ncnc6c5)cc4F)c3n2)C[C@H]1C(C)(C)C [Example 310]
562 nM | ≥ 10000 nM | 80.3 nM | 16.2 nM | C=CC(=O)N1CCN(c2ccc3ncnc(Nc4ccc(Oc5ccn6ncnc6c5)c(Cl)c4F)c3n2)C[C@H]1C(C)(C)C [Example 311]

IC50 (EGFR wild type (EGFR WT)) | IC50 (EGFR) | IC50 (ErbB2 WT) | IC50 [1] | Compound
≥ 5000 nM | ≥ 10000 nM | 119 nM | 68.8 nM | CC#CC(=O)N1CC[C@@H]2C[C@H]1CN2c1ccc2ncnc(Nc3cc(Cl)c(Oc4ccn5ncnc5c4)cc3F)c2n1 [Example 315]
1450 nM | 1970 nM | 23.1 nM | 61.6 nM | CC#CC(=O)N1C[C@@H]2C[C@H]1CN2c1ccc2ncnc(Nc3ccc(Oc4ccn5ncnc5c4)c(Cl)c3F)c2n1 [Example 316]
117 nM | 268 nM | 44 nM | 6.4 nM | C=CC(=O)N1CC[C@@H]2C[C@H]1CN2c1ccc2ncnc(Nc3ccc(Oc4cnc5c(c4)ncn5C)c(C)c3F)c2n1 [Example 317]
78.3 nM | 436 nM | 45.6 nM | 9.4 nM | C=CC(=O)N1C[C@@H]2CC[C@H]1CN2c1ccc2ncnc(Nc3ccc(Oc4cnc5c(c4)ncn5C)c(C)c3F)c2n1 [Example 320]
124 nM | 86.4 nM | 4.6 nM | 3.8 nM | C=CC(=O)N1C[C@@H]2CC[C@H]1CN2c1ccc2ncnc(Nc3cc(Cl)c(Oc4ccn5ncnc5c4)cc3F)c2n1 [Example 321]
276 nM | 419 nM | 50.8 nM | 10.2 nM | C=CC(=O)N1C[C@@H]2CC[C@H]1CN2c1ccc2ncnc(Nc3cc(C)c(Oc4cnc5c(c4)ncn5C)cc3F)c2n1 [Example 324]
≥ 5000 nM | ≥ 10000 nM | 239 nM | 241 nM | C=CC(=O)N1C[C@H]2CC[C@@H]1CN2c1ccc2ncnc(Nc3cc(Cl)c(Oc4ccn5ncnc5c4)cc3F)c2n1 [Example 330]
79 nM | 48.8 nM | 4.7 nM | 3.2 nM | C=CC(=O)N1C[C@@H]2CC[C@H]1CN2c1ccc2ncnc(Nc3ccc(Oc4ccn5ncnc5c4)c(C)c3F)c2n1 [Example 331]
68.9 nM | 108 nM | 7 nM | 4.9 nM | C=CC(=O)N1CCN(c2ccc3ncnc(Nc4ccc(Oc5ccn6ncnc6c5)c(C)c4F)c3n2)CC12CC2 [Example 338]
361 nM | ≥ 10000 nM | 14.1 nM | 16.4 nM | C=CC(=O)N1CCN(c2ccc3ncnc(Nc4ccc(Oc5ccc6c(c5)ncn6C)c(C)c4F)c3n2)CC12CC2 [Example 339]
≥ 5000 nM | ≥ 10000 nM | 113 nM | 529 nM | C=C(C)C(=O)N1CCN(c2ccc3ncnc(Nc4ccc(Oc5ccn6ncnc6c5)c(C)c4F)c3n2)CC1(C)C [Example 341]
372 nM | 841 nM | 44.6 nM | 9.4 nM | C=CC(=O)N1CCC12CN(c1ccc3ncnc(Nc4cc(Cl)c(Oc5ccn6ncnc6c5)cc4F)c3n1)C2 [Example 343]
46.8 nM | 88.4 nM | 7.7 nM | 3.4 nM | C=CC(=O)N1CCN(c2ccc3ncnc(Nc4ccc(Oc5ccn6ncnc6c5)c(Cl)c4F)c3n2)C[C@H]1COC [Example 344]
115 nM | 174 nM | 9.4 nM | 5.1 nM | C=CC(=O)N1CCN(c2ccc3ncnc(Nc4cc(Cl)c(Oc5ccn6ncnc6c5)cc4F)c3n2)C[C@H]1COC [Example 345]
380 nM | 772 nM | 38 nM | 8.2 nM | C=CC(=O)N1CCN(c2ccc3ncnc(Nc4cc(C)c(Oc5ccn6ncnc6c5)cc4F)c3n2)C[C@H]1COC [Example 347]
348 nM | 414 nM | 12.1 nM | 8.2 nM | C=CC(=O)N1CCN(c2ccc3ncnc(Nc4ccc(Oc5ccn6ncnc6c5)c(Cl)c4F)c3n2)C[C@@H]1COC [Example 348]
≥ 5000 nM | 2680 nM | 29.3 nM | 35.8 nM | C=CC(=O)N(C)[C@@H]1CCN(c2ccc3ncnc(Nc4ccc(Oc5ccn6ncnc6c5)c(C)c4F)c3n2)C1 [Example 349]
≥ 5000 nM | ≥ 10000 nM | 69.4 nM | 96 nM | C=CC(=O)N(C)[C@@H]1CCN(c2ccc3ncnc(Nc4cc(C)c(Oc5ccn6ncnc6c5)cc4F)c3n2)C1 [Example 350]
≥ 5000 nM | 2910 nM | 25.4 nM | 11.5 nM | C=CC(=O)N(C)[C@H]1CCN(c2ccc3ncnc(Nc4ccc(Oc5ccn6ncnc6c5)c(C)c4F)c3n2)C1 [Example 352]
178 nM | 121 nM | 8.8 nM | 4.1 nM | C=CC(=O)N1CCC12CN(c1ccc3ncnc(Nc4ccc(Oc5ccn6ncnc6c5)c(Cl)c4F)c3n1)C2 [Example 360]
35.8 nM | 22.3 nM | 1.8 nM | 3.2 nM | C=CC(=O)N1CCN(c2ccc3ncnc(Nc4ccc(Oc5ccn6ncnc6c5)c(Cl)c4F)c3n2)CC12CC2 [Example 363]

Compound | IC50 (EGFR wild type (EGFR WT)) | IC50 (EGFR) | IC50 (ErbB2 WT) | IC50 [1]
C=CC(=O)N1CC2CC(C1)N2c1ccc2ncnc(Nc3cc(C)c(Oc4ccn5ncnc5c4)cc3F)c2n1 [Example 336] | 4880 nM | 5700 nM | 203 nM | 50.5 nM
